Experimental data: patent US20050113349A1, “2-Alpha vitamin D derivatives having substituents” (Hiroaki TAKAYAMA, priority 1999, published 2005)

The compounds below were run against T1, Vitamin D Receptor (VDR) (Bos taurus, UniProt Q28037) (assay: Assay for binding to vitamin D receptor (VDR), displacement of [3H]-1α,25-dihydroxyvitamin D3). Details: relative value with that of 1α,25-dihydroxyvitamin D3 taken as 100; bovine thymus receptor; [3H]-1α,25-dihydroxyvitamin D3 0.1 nM; overnight at 4° C.
T1 construct: Bovine thymus 1α,25-dihydroxyvitamin D3 receptor was purchased; purchased YAMASA SHOYU KABUSHIKI KAISHA lot.110431; host or cells: bovine thymus (tissue preparation)
T1 sequence (Q28037 1-426): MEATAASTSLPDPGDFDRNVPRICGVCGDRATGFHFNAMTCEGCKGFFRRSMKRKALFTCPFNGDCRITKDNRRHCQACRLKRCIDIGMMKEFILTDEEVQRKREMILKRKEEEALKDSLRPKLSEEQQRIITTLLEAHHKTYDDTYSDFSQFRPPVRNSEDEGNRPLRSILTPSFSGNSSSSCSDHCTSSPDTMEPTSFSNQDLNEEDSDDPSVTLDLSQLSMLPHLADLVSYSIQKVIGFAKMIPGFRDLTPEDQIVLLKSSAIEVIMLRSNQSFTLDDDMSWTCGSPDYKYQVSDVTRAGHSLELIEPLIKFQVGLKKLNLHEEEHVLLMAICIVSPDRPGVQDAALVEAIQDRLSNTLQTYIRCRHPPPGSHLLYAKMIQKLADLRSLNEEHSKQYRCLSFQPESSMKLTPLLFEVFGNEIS
Experimental: Assay for Binding to Vitamin D Receptor (VDR)
Bovine thymus 1α,25-dihydroxyvitamin D3 receptor was purchased from YAMASA SHOYU KABUSHIKI KAISHA (lot.110431) and 1 ampule (approximately 25 mg) of the receptor was dissolved in 55 mL of 0.05 M phosphate 0.5M potassium buffer (pH 7.4) just before use. Ethanol solutions (50 μl) of 1α,25-dihydroxyvitamin D3 and Compounds 31-35 of the present invention at various concentrations were prepared, mixed with aliquots (500 μl, 0.23 mg protein) of the receptor solution and pre-incubated at room temperature for 1 hour. To the resultant mixtures, [^3H]-1α,25-dihydroxyvitamin D3 was added at the final concentration of 0.1 nM, followed by incubation overnight at 4° C.
The reaction mixtures were treated with dextran coated charcoal for 30 minutes at 4° C. to separate the bound and free forms of [^3H]-1α,25-dihydroxyvitamin D3, and centrifuged at 3000 rpm for ten minutes. Each of the resultant supernatants (500 μl) was mixed with ACS-II (9.5 ml) (AMERSHAM, England) for radioactivity measurement.
The binding properties of Compounds 31-35 of the present invention were expressed in relative values with that of 1α,25-dihydroxyvitamin D3 taken as 100.

Compound	Binding property
C=C1/C(=C\C=C2/CCC[C@]3(C)[C@@H]([C@H](C)CCCC(C)(C)O)CC[C@@H]23)C[C@@H](O)[C@H](CC)[C@@H]1O [Compound 34, (5Z,7E)-(1S,2S,3R,20R)-9,10-seco-5,7,10(19)-cholestatriene-2-ethyl-1,3,25-triol]	40
(5Z,7E)-(1S,2S,3R,20R)-9,10-seco-5,7,10(19)-cholestatriene-2-hydroxymethyl-1,3,25-triol [Compound 31]	20

Results, then the compound that gave them:

Binding property	Compound
20	C=C1C(=CC=C2CCCC3(C)C2CCC3C(C)CCCC(C)(C)O)CC(O)C(CCC)C1O [Compound 35, (5Z,7E)-(1S,2S,3R,20R)-9,10-seco-5,7,10(19)-cholestatriene-2-propyl-1,3,25-triol]
300	(5Z,7E)-(1S,2S,3R,20R)-9,10-seco-5,7,10(19)-cholestatriene-2-(3′-hydroxypropyl)-1,3,25-triol [Compound 33]
70	C=C1C(=CC=C2CCCC3(C)C2CCC3C(C)CCCC(C)(C)O)CC(O)C(CCO)C1O [Compound 32, (5Z,7E)-(1S,2S,3R,20R)-9,10-seco-5,7,10(19)-cholestatriene-2-(2′-hydroxyethyl)-1,3,25-triol]
